Measurements from patent US20140303260A1, “PHARMACEUTICAL COMPOSITIONS OF RESVERATROL” (NAD Life Pty Ltd, priority 2011, published 2014).

What was measured:
blood NAD levels = assay: NAD levels in a test group of subjects after administration of resveratrol, buccal/sublingual composition versus oral; format: in vivo, human
Procedure: A 35% increased blood NAD level was sustained at 4 hrs compared to baseline. […] The comparison of the effect on NAD levels between oral administration of resveratrol and buccal/sublingual membrane administration of resveratrol is best shown in FIG. 3. This graph depicts the difference in the change in a subject's NAD levels (in ng/mL) when resveratrol is administered orally (absorption through the gastrointestinal tract) compared to when resveratrol is administrated by the pharmaceutical composition of the present invention (absorption through the buccal/sublingual membranes).

[1] = cited from earlier work

Oc1ccc(C=Cc2cc(O)cc(O)c2)cc1 [resveratrol]
increase in blood NAD levels (blood NAD levels; absorption through buccal/sublingual membranes (FIG. 1), at 1 hr (60 min)): 41%
increased blood NAD level sustained compared to baseline (blood NAD levels; absorption through buccal/sublingual membranes, at 4 hrs): 35%
change in blood NAD levels (blood NAD levels; delivered via powdered slurry (gastrointestinal absorption alone)): No observable change
level of NAD after oral administration (blood NAD levels; oral, absorbed through the gastrointestinal tract (FIG. 2), in only some of the people in the group): only a mild increase
solubility in aqueous solutions [1]: almost insoluble
